Legend:
Test in all cases: relative viability (nuclei count vs DMSO), 5 days (fraction); higher = more cells survive
[1] = compound: C[As](C)SC[C@H](NC(=O)CC[C@H](N)C(=O)O)C(=O)NCC(=O)O [Darinaparsin] + N=C(N)NC(=N)NCCc1ccccc1 [Phenformin] (partner 250 µM)
Method in brief: (§1)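 Cells from lung cancer lines were seeded into 1536-well plates and, one day later, dosed by pin tool. Treatments were either a single drug or a fixed dose of an anchor drug with five library-drug doses (not always all listed) in √10 steps. After 5 days, nuclei were stained in a one-step fixation (final 0.05% Triton X-100, 1% formaldehyde, 1 ug/ml Hoechst) and counted on 4× images, and relative viability is the treated-to-vehicle nuclei ratio, as the median of duplicate plates.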

AZ628 + Phenformin = compound: CC1=C(C=C(C=C1)NC(=O)C2=CC(=CC=C2)C(C)(C)C#N)NC3=CC4=C(C=C3)N=CN(C4=O)C [AZ628] + N=C(N)NC(=N)NCCc1ccccc1 [Phenformin] (partner 250 µM)
Method in brief: as §1

QS11 + Palbociclib = compound: C1CC2=C(C1)C=C(C=C2)OC3=NC(=C4C(=N3)N(C=N4)CC5=CC=C(C=C5)C6=CC=CC=C6)N[C@@H](CC7=CC=CC=C7)CO [QS11] + CC(=O)c1c(C)c2cnc(Nc3ccc(N4CCNCC4)cn3)nc2n(C2CCCC2)c1=O [Palbociclib] (partner 0.5 µM)
Method in brief: as §1

AZ628 + Olaparib = compound: CC1=C(C=C(C=C1)NC(=O)C2=CC(=CC=C2)C(C)(C)C#N)NC3=CC4=C(C=C3)N=CN(C4=O)C [AZ628] + O=C(c1cc(Cc2n[nH]c(=O)c3ccccc23)ccc1F)N1CCN(C(=O)C2CC2)CC1 [Olaparib] (partner 8 µM)
Method in brief: as §1

Cell Line: NCI-H1623
- relative viability ([1]; first compound 0.08 µM): 0.619
- relative viability ([1]; first compound 0.8 µM): 0.572
- relative viability ([1]; first compound 2.53 µM): 0.587
- relative viability ([1]; first compound 8 µM): 0.621
- relative viability (AZ628 + Phenformin; first compound 0.08 µM): 0.6
- relative viability (AZ628 + Phenformin; first compound 0.253 µM): 0.524
- relative viability (AZ628 + Phenformin; first compound 0.8 µM): 0.382
- relative viability (AZ628 + Phenformin; first compound 2.53 µM): 0.505
- relative viability (AZ628 + Phenformin; first compound 8 µM): 0.437

Cell Line: NCI-H1355
- relative viability (QS11 + Palbociclib; first compound 0.08 µM): 0.43
- relative viability (QS11 + Palbociclib; first compound 0.253 µM): 0.314
- relative viability (QS11 + Palbociclib; first compound 0.8 µM): 0.299
- relative viability (QS11 + Palbociclib; first compound 2.53 µM): 0.35
- relative viability (QS11 + Palbociclib; first compound 8 µM): 0.38
- relative viability ([1]; first compound 0.08 µM): 0.45
- relative viability ([1]; first compound 0.8 µM): 0.459
- relative viability ([1]; first compound 2.53 µM): 0.382
- relative viability ([1]; first compound 8 µM): 0.412
- relative viability (AZ628 + Phenformin; first compound 0.08 µM): 0.502
- relative viability (AZ628 + Phenformin; first compound 0.253 µM): 0.444
- relative viability (AZ628 + Phenformin; first compound 0.8 µM): 0.431
- relative viability (AZ628 + Phenformin; first compound 2.53 µM): 0.411
- relative viability (AZ628 + Phenformin; first compound 8 µM): 0.39
- relative viability (AZ628 + Olaparib; first compound 0.08 µM): 0.73
- relative viability (AZ628 + Olaparib; first compound 0.253 µM): 0.784
- relative viability (AZ628 + Olaparib; first compound 0.8 µM): 0.684
- relative viability (AZ628 + Olaparib; first compound 2.53 µM): 0.745
- relative viability (AZ628 + Olaparib; first compound 8 µM): 0.574

Cell Line: NCI-H2170
- relative viability (QS11 + Palbociclib; first compound 0.08 µM): 0.391
- relative viability (QS11 + Palbociclib; first compound 0.253 µM): 0.472
- relative viability (QS11 + Palbociclib; first compound 0.8 µM): 0.291
- relative viability (QS11 + Palbociclib; first compound 2.53 µM): 0.365
- relative viability (QS11 + Palbociclib; first compound 8 µM): 0.371
- relative viability ([1]; first compound 0.08 µM): 0.429
- relative viability ([1]; first compound 0.8 µM): 0.427
- relative viability ([1]; first compound 2.53 µM): 0.424
- relative viability ([1]; first compound 8 µM): 0.464
- relative viability (AZ628 + Phenformin; first compound 0.08 µM): 0.447
- relative viability (AZ628 + Phenformin; first compound 0.253 µM): 0.398
- relative viability (AZ628 + Phenformin; first compound 0.8 µM): 0.402
- relative viability (AZ628 + Phenformin; first compound 2.53 µM): 0.41
- relative viability (AZ628 + Phenformin; first compound 8 µM): 0.381
- relative viability (AZ628 + Olaparib; first compound 0.08 µM): 0.56
- relative viability (AZ628 + Olaparib; first compound 0.253 µM): 0.598
- relative viability (AZ628 + Olaparib; first compound 0.8 µM): 0.607
- relative viability (AZ628 + Olaparib; first compound 2.53 µM): 0.638
- relative viability (AZ628 + Olaparib; first compound 8 µM): 0.551

Cell Line: NCI-H2405
- relative viability (QS11 + Palbociclib; first compound 0.08 µM): 0.544
- relative viability (QS11 + Palbociclib; first compound 0.253 µM): 0.541
- relative viability (QS11 + Palbociclib; first compound 0.8 µM): 0.488
- relative viability (QS11 + Palbociclib; first compound 2.53 µM): 0.536
- relative viability (QS11 + Palbociclib; first compound 8 µM): 0.502
- relative viability ([1]; first compound 0.08 µM): 0.407
- relative viability ([1]; first compound 0.8 µM): 0.377
- relative viability ([1]; first compound 2.53 µM): 0.415
- relative viability ([1]; first compound 8 µM): 0.405
- relative viability (AZ628 + Phenformin; first compound 0.08 µM): 0.153
- relative viability (AZ628 + Phenformin; first compound 0.253 µM): 0.202
- relative viability (AZ628 + Phenformin; first compound 0.8 µM): 0.229
- relative viability (AZ628 + Phenformin; first compound 2.53 µM): 0.235
- relative viability (AZ628 + Phenformin; first compound 8 µM): 0.24
- relative viability (AZ628 + Olaparib; first compound 0.08 µM): 0.661
- relative viability (AZ628 + Olaparib; first compound 0.253 µM): 0.792
- relative viability (AZ628 + Olaparib; first compound 0.8 µM): 0.572
- relative viability (AZ628 + Olaparib; first compound 2.53 µM): 0.646
- relative viability (AZ628 + Olaparib; first compound 8 µM): 0.555

Cell Line: NCI-H2023
- relative viability (QS11 + Palbociclib; first compound 0.08 µM): 0.42
- relative viability (QS11 + Palbociclib; first compound 0.253 µM): 0.397
- relative viability (QS11 + Palbociclib; first compound 0.8 µM): 0.302
- relative viability (QS11 + Palbociclib; first compound 2.53 µM): 0.36
- relative viability (QS11 + Palbociclib; first compound 8 µM): 0.29
- relative viability ([1]; first compound 0.08 µM): 0.529
- relative viability ([1]; first compound 0.8 µM): 0.417
- relative viability ([1]; first compound 2.53 µM): 0.368
- relative viability ([1]; first compound 8 µM): 0.501
- relative viability (AZ628 + Phenformin; first compound 0.08 µM): 0.387
- relative viability (AZ628 + Phenformin; first compound 0.253 µM): 0.392
- relative viability (AZ628 + Phenformin; first compound 0.8 µM): 0.368
- relative viability (AZ628 + Phenformin; first compound 2.53 µM): 0.381
- relative viability (AZ628 + Phenformin; first compound 8 µM): 0.293
- relative viability (AZ628 + Olaparib; first compound 0.08 µM): 0.452
- relative viability (AZ628 + Olaparib; first compound 0.253 µM): 0.427
- relative viability (AZ628 + Olaparib; first compound 0.8 µM): 0.522
- relative viability (AZ628 + Olaparib; first compound 2.53 µM): 0.508
- relative viability (AZ628 + Olaparib; first compound 8 µM): 0.433

Cell Line: PC-3 [JPC-3]
- relative viability (QS11 + Palbociclib; first compound 0.253 µM): 0.586
- relative viability (QS11 + Palbociclib; first compound 0.8 µM): 0.396
- relative viability (QS11 + Palbociclib; first compound 2.53 µM): 0.595
- relative viability (QS11 + Palbociclib; first compound 8 µM): 0.575
- relative viability ([1]; first compound 0.08 µM): 0.534
- relative viability ([1]; first compound 0.8 µM): 0.481
- relative viability ([1]; first compound 2.53 µM): 0.436
- relative viability ([1]; first compound 8 µM): 0.467
- relative viability (AZ628 + Phenformin; first compound 0.08 µM): 0.441
- relative viability (AZ628 + Phenformin; first compound 0.253 µM): 0.477
- relative viability (AZ628 + Phenformin; first compound 0.8 µM): 0.485
- relative viability (AZ628 + Phenformin; first compound 2.53 µM): 0.464
- relative viability (AZ628 + Phenformin; first compound 8 µM): 0.383
- relative viability (AZ628 + Olaparib; first compound 0.08 µM): 1.1
- relative viability (AZ628 + Olaparib; first compound 0.253 µM): 1.16
- relative viability (AZ628 + Olaparib; first compound 0.8 µM): 1.22
- relative viability (AZ628 + Olaparib; first compound 2.53 µM): 1.23
- relative viability (AZ628 + Olaparib; first compound 8 µM): 1.1

Cell Line: NCI-H1703
- relative viability (AZ628 + Olaparib; first compound 0.08 µM): 0.239
- relative viability (AZ628 + Olaparib; first compound 0.253 µM): 0.216
- relative viability (AZ628 + Olaparib; first compound 0.8 µM): 0.216
- relative viability (AZ628 + Olaparib; first compound 2.53 µM): 0.178
- relative viability (AZ628 + Olaparib; first compound 8 µM): 0.177

Cell Line: NCI-H1563
- relative viability ([1]; first compound 0.08 µM): 0.773
- relative viability ([1]; first compound 0.8 µM): 0.619
- relative viability ([1]; first compound 2.53 µM): 0.658
- relative viability ([1]; first compound 8 µM): 0.642
- relative viability (AZ628 + Phenformin; first compound 0.08 µM): 0.694
- relative viability (AZ628 + Phenformin; first compound 0.253 µM): 0.661
- relative viability (AZ628 + Phenformin; first compound 0.8 µM): 0.672
- relative viability (AZ628 + Phenformin; first compound 2.53 µM): 0.654
- relative viability (AZ628 + Phenformin; first compound 8 µM): 0.679

Cell Line: NCI-H596
- relative viability ([1]; first compound 0.08 µM): 0.891
- relative viability ([1]; first compound 0.8 µM): 0.737
- relative viability ([1]; first compound 2.53 µM): 0.677
- relative viability ([1]; first compound 8 µM): 0.745
- relative viability (AZ628 + Phenformin; first compound 0.08 µM): 0.722
- relative viability (AZ628 + Phenformin; first compound 0.253 µM): 0.85
- relative viability (AZ628 + Phenformin; first compound 0.8 µM): 0.969
- relative viability (AZ628 + Phenformin; first compound 2.53 µM): 0.781
- relative viability (AZ628 + Phenformin; first compound 8 µM): 0.808
- relative viability (AZ628 + Olaparib; first compound 0.08 µM): 0.76
- relative viability (AZ628 + Olaparib; first compound 0.253 µM): 0.793
- relative viability (AZ628 + Olaparib; first compound 0.8 µM): 0.703
- relative viability (AZ628 + Olaparib; first compound 2.53 µM): 0.799
- relative viability (AZ628 + Olaparib; first compound 8 µM): 0.651

Cell Line: Calu-6
- relative viability (AZ628 + Olaparib; first compound 0.08 µM): 0.595
- relative viability (AZ628 + Olaparib; first compound 0.253 µM): 0.491
- relative viability (AZ628 + Olaparib; first compound 0.8 µM): 0.496
- relative viability (AZ628 + Olaparib; first compound 2.53 µM): 0.41
- relative viability (AZ628 + Olaparib; first compound 8 µM): 0.16

Cell Line: NCI-H1299
- relative viability (AZ628 + Olaparib; first compound 0.08 µM): 1.12
- relative viability (AZ628 + Olaparib; first compound 0.253 µM): 1.18
- relative viability (AZ628 + Olaparib; first compound 0.8 µM): 1.12
- relative viability (AZ628 + Olaparib; first compound 2.53 µM): 1.27
- relative viability (AZ628 + Olaparib; first compound 8 µM): 0.628

Cell Line: NCI-H1648
- relative viability (QS11 + Palbociclib; first compound 0.08 µM): 0.279
- relative viability (QS11 + Palbociclib; first compound 0.253 µM): 0.265
- relative viability (QS11 + Palbociclib; first compound 0.8 µM): 0.331
- relative viability (QS11 + Palbociclib; first compound 2.53 µM): 0.294
- relative viability (QS11 + Palbociclib; first compound 8 µM): 0.294
- relative viability (AZ628 + Olaparib; first compound 0.08 µM): 1.09
- relative viability (AZ628 + Olaparib; first compound 0.253 µM): 0.62
- relative viability (AZ628 + Olaparib; first compound 0.8 µM): 1.01
- relative viability (AZ628 + Olaparib; first compound 2.53 µM): 0.767
- relative viability (AZ628 + Olaparib; first compound 8 µM): 0.556

Cell Line: IA-LM
- relative viability (AZ628 + Olaparib; first compound 0.08 µM): 1.03
- relative viability (AZ628 + Olaparib; first compound 0.253 µM): 0.815
- relative viability (AZ628 + Olaparib; first compound 0.8 µM): 0.846
- relative viability (AZ628 + Olaparib; first compound 2.53 µM): 0.875
- relative viability (AZ628 + Olaparib; first compound 8 µM): 0.363

Reference: the supplement of paper PMC10307832
